Where a name gives a salt, the structure may show the parent alone.
Tests used:
Type in all cases: in vivo
[1] = tested on: olfactory bulbectomy rat; assay: Score of emotional responses in olfactory bulbectomy rat (antidepressant effect); details: for score of emotional responses: seventh day, Male Wistar olfactory bulbectomy rat, 10 mg/kg orally twice a day for 7 days, control group 20.1±0.7, sham 3.7±3.4
From the text: (§1) Antidepressant Effect and Antianxiety Effect for Olfactory Bulbectomy Rat
(§2) Male Wistar rat was anesthetized by injection of pentobarbital sodium, and fixed the head on a brain positioner. Either side of the bulbus olfactorius region of the head was drilled a hole with dental drill after the scalp incision. The either side of the bulbus olfactorius was aspirated and removed with an aspirator and then, the head was stitched up the scalp. The rat was defined as an olfactory bulbectomy animal. Alternatively, a sham surgery animal was anesthetized, fixed the brain, incised the scalp as well as the olfactory bulbectomy animal. The either side of the bulbus olfactorius region of the head was drilled a hole, and the either side of the bulbus olfactorius was not aspirated and removed and then, the head was stitched up the scalp. The olfactory bulbectomy animals were bred with isolated alone. In contrast, the sham surgery animals were not bred with isolated alone.
The olfactory bulbectomy animals were orally administered each the compound (I) of the present invention (10 mg/kg), the compound as positive control (desipramine hydrochloride (10 mg/kg); Wako Pure Chemical Industries, Ltd.), and control (0.5% methylcellulose suspension (5 mL/kg)) twice a day for 7 days. At that time, reactivity of emotional responses for 10 minutes for the first dosage one hour later of the first day and the seventh day was marked in accordance with an evaluation standard based on Gomi's method (Gomitami, other four people, Japanese pharmacologic magazine, 1983, Vol. 82, p 267-292).

[2] = tested on: corticosterone elevation evoked by administration of sulprostone; assay: Inhibitory activity for corticosterone elevation evoked by administration of sulprostone; details: Male CD (SD) IGS rat; 10 mg/kg orally 1 hour before sulprostone 0.3 mg/kg subcutaneously; blood 1 hour after
Protocol: Inhibitory Activity for Corticosterone Elevation Evoked by Administration of Sulprostone
Male CD (SD) IGS rat were orally administrated EP3 antagonist [compound (I), compound (II) and compound (III) (respectively, 10 mg/5 mL/kg (0.5% methylcellulose suspension))], the control group were orally administrated 0.5% methylcellulose suspension (5 mL/kg). After being administered for an hour, all groups were administered sulprostone subcutaneously (0.3 mg/4 mL/kg). In contrast, non-evoked group were orally administrated 0.5% methylcellulose suspension (5 mL/kg), and after being administered for an hour, administered physiological saline subcutaneously (4 mL/kg). After 1 hour from subcutaneous administration, rats of all groups were collected blood. The withdrawn blood was added EDTA and aprotinin, centrifuged (12,000 rpm, 3 minutes), and measured the corticosterone concentration in the supernatant by using the method of EIA (Bachem Inc.) or ELISA (Endocrine Technologies Inc.).

[3] = tested on: olfactory bulbectomy rat; assay: Elevated plus-maze in olfactory bulbectomy rat (antianxiety effect); details: for antianxiety effect: elevated plus-maze
From the text: as §1, §2
Furthermore, each the olfactory bulbectomy animals and the sham surgery animals administered the compound (I) of the present invention, desipramine hydrochloride or control were located the center of platform toward the open arms on the elevated plus-maze for 10 minutes for the first dosage one hour later of the eighth day, and it was measured within a 5 minutes period. Each the time (second) in the open arms and the close arms were measured with video-imaging behavioral analysis equipment.

Row | SMILES | effective daily dosage in olfactory bulbectomy rat ([1]; olfactory bulbectomy rat, oral) [mg/kg per day] | score of emotional responses [1] | corticosterone elevation (corticosterone concentration in blood) [2] | antidepressant effect ([1]; olfactory bulbectomy rat) | score of emotional responses (in words) ([1]; olfactory bulbectomy rat, 10 mg/kg orally twice a day, FIG. 2) | time in the open arms on the elevated plus-maze ([3]; eighth day, 1 hour after first dosage, 5 minutes period, FIG. 3) | antianxiety effect [3]
1 | CNCCCN1c2ccccc2CCc2ccccc21 [desipramine hydrochloride, reference compound] | 20 | 7.5±3.4 | – | – | – | – | –
2 | Cc1cc(C)cc([C@@H](CC(C)C)NC(=O)c2cc(COc3cc(F)ccc3C)ccc2CCC(=O)O)c1 [compound (I), 3-(2-((((1R)-1-(3,5-dimethylphenyl)-3-methylbutyl)amino)carbonyl)-4-(5-fluoro-2-methylphenoxymethyl)phenyl)propanoic acid] | – | 6.2±4.6 | inhibited | has antidepressant effect | decreased significantly | improved significantly | has antianxiety effect
3 | Cc1cc(C)cc([C@@H](CC(C)C)NC(=O)c2cc(COc3cc(F)ccc3F)ccc2CCC(=O)O)c1 [compound (II), 3-(2-(((1R)-3-methyl-1-(3,5-dimethylphenyl)butyl)carbamoyl)-4-(2,5-difluorophenoxymethyl)phenyl)propanoic acid] | – | – | inhibited | equivalent effect | – | – | equivalent effect
4 | Cc1cc(C)cc([C@@H](CC(C)C)NC(=O)c2cc(COc3cc(C)ccc3C)ccc2CCC(=O)O)c1 [compound (III), 3-(2-(((1R)-3-methyl-1-(3,5-dimethylphenyl)butyl)carbamoyl)-4-(2,5-dimethylphenoxymethyl)phenyl)propanoic acid] | – | – | inhibited | equivalent effect | – | – | equivalent effect

From patent US20090286862A1, “Therapeutic agent for psychoneurotic disease” (ONO PHARMACEUTICAL CO., LTD., priority 2004, published 2009)
